In ChEMBL document CHEMBL6078649, “Discovery of Chalcone Derivatives as Bifunctional Molecules with Anti-SARS-CoV-2 and Anti-inflammatory Activities” (J Nat Prod, 2024):
pEC50, pIC50: −log10 of the molar value.

How the values were obtained:
[1] = test system: RAW264.7; experiment: Anti-inflammatory activity against mouse RAW264.7 cells assessed as inhibition of LPS-induced NO production at 10 uM preincubated for 1 hr followed by LPS treatment measured after 24 hrs relative to control; type: functional; settings: time 25 hrs
[2] = Cytotoxicity against mouse RAW264.7 cells assessed as cell viability at 1 uM incubated for 24 hrs by CCK8 assay relative to control; type: toxicity, cell-based; settings: read-out: Activity
[3] = molecular target: Replicase polyprotein 1ab (Severe acute respiratory syndrome coronavirus 2, UniProt P0DTD1)
[4] = test system: RAW264.7; experiment: Anti-inflammatory activity against mouse RAW264.7 cells assessed as inhibition of LPS-induced NO production at 1 uM preincubated for 1 hr followed by LPS treatment measured after 24 hrs relative to control; type: functional; settings: time 25 hrs
[5] = molecular target: Replicase polyprotein 1ab (Severe acute respiratory syndrome coronavirus 2) (UniProt P0DTD1); experiment: Inhibition of SARS-CoV-2 3CLPro using DabcylKNSTLQSGLRK-Edans as substrate at 5 uM preincubated for 30 mins followed by substrate addition measured after 20 mins by FRET assay relative to control; settings: time 50.0 min
[6] = Cytotoxicity against mouse RAW264.7 cells assessed as cell viability at 50 uM incubated for 24 hrs by CCK8 assay relative to control; type: toxicity, cell-based; settings: read-out: Activity
[7] = molecular target: Replicase polyprotein 1ab (Severe acute respiratory syndrome coronavirus 2) (UniProt P0DTD1); experiment: Inhibition of SARS-CoV-2 3CLPro using DabcylKNSTLQSGLRK-Edans as substrate at 50 uM preincubated for 30 mins followed by substrate addition measured after 20 mins by FRET assay relative to control; settings: time 50.0 min
[8] = Cytotoxicity against mouse RAW264.7 cells assessed as cell viability at 10 uM incubated for 24 hrs by CCK8 assay relative to control; type: toxicity, cell-based; settings: read-out: Activity
[9] = Cytotoxicity against human Huh-7 cells harboring viral replicon/EGFP/Neo genes assessed as cell viability at 5 uM incubated for 24 hrs by Cell Titer Glo assay relative to control; type: toxicity, cell-based; settings: read-out: Activity
[10] = Cytotoxicity against human Huh-7 cells harboring viral replicon/EGFP/Neo genes assessed as cell viability at 50 uM incubated for 24 hrs by Cell Titer Glo assay relative to control; type: toxicity, cell-based; settings: read-out: Activity
[11] = Cytotoxicity against human Huh-7 cells harboring viral replicon/EGFP/Neo genes assessed as cell viability incubated for 24 hrs by Cell Titer Glo assay; type: toxicity, cell-based

SMILES	inhibition at 10 µM [1]	viability at 24 h, 1 µM [2]	pIC50 [3]	inhibition at 1 µM [4]	inhibition [5]	viability at 24 h, 50 µM [6]	inhibition [7]	viability at 24 h, 10 µM [8]	viability at 24 h, 5 µM [9]	viability at 24 h, 50 µM [10]	CC50 at 24 h [11]	pEC50 [3]
O=C(/C=C/c1c(Cl)c(O)c(O)c(O)c1Cl)c1ccc(Cl)cc1	81.1%	81.2%	6.20	27%	0.4%	22.6%	0.4%	68.7%				
O=C(/C=C/c1c(Cl)c(O)c(O)c(O)c1Cl)c1ccc(-c2ccc(F)cc2)cc1	89.4%	55.5%	5.97	39.5%	-0.6%	11.2%	0.6%	33.1%	86.5%	10.2%		
O=C(CCc1cc(O)c(O)c(O)c1)c1ccc(F)cc1	54.1%	117%	5.75	20.8%	21.4%	87.6%	6.3%	103%	110%	92.7%	> 100000 nM	
O=C(/C=C/c1c(Cl)c(O)c(O)c(O)c1Cl)c1ccc(F)cc1Cl	87.3%	118%	6.51	16.6%	1.1%	52.4%	1.6%	122%	104%	56.9%		
O=C(/C=C/c1c(Cl)c(O)c(O)c(O)c1Cl)c1ccccc1	39.5%	95.5%	6.85	14.6%	1%	96.9%	-0.3%	66.8%	105%	64.2%		
O=C(/C=C/c1c(Cl)c(O)c(O)c(O)c1Cl)c1ccccc1F	87.3%	89%	6.63	43.7%	2.3%	72.8%	3.1%	84.6%				
O=C(O)/C=C/c1c(Cl)c(O)c(O)c(O)c1Cl	-14.6%	93.8%	6.08	27%	3.1%	82.1%	2.9%	92.4%				
O=C(/C=C/c1cc(O)c(O)c(O)c1Cl)c1ccc(F)cc1	72.8%	111%	6.37	-4.2%	1.1%	104%	1.1%	110%	106%	71.4%		
O=C(/C=C/c1c(Cl)c(O)c(O)c(O)c1Cl)c1ccc(O)cc1	37.4%	122%	6.72	16.6%	1.3%	114%	1.9%	95.6%	105%	87.9%		
O=C(/C=C/c1c(Cl)c(O)c(O)c(O)c1Cl)c1ccc([N+](=O)[O-])cc1	70.7%	115%	6.56	2.1%	0.6%	77.4%	-0.2%	110%	110%	74.7%		
O=C(/C=C/c1c(Cl)c(O)c(O)c(O)c1Cl)c1c(Cl)c(O)c(O)c(O)c1Cl	76.9%	51.2%	6.94	22.9%	0%	82.4%	0.2%	37%	111%	99.3%		
O=C(/C=C/c1c(Cl)c(O)c(O)c(O)c1Cl)c1ccc(Cl)c(Cl)c1	89.4%	79.8%	6.38	58.2%	-0.8%	12.5%	-0.3%	50%				
O=C(O)[C@H](O)Cc1ccc(O)c(O)c1			5.67		5.3%							< 4.30
